# Tests used:
# Test in all cases: relative viability (nuclei count vs DMSO), 5 days (fraction); higher = more cells survive
# Wnt-C59 + Olaparib = compound: CC1=NC=CC(=C1)C2=CC=C(C=C2)CC(=O)NC3=CC=C(C=C3)C4=CN=CC=C4 [Wnt-C59] + O=C(c1cc(Cc2n[nH]c(=O)c3ccccc23)ccc1F)N1CCN(C(=O)C2CC2)CC1 [Olaparib] (partner 8 µM)
# Method in brief: (§1)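 Lung cancer cell lines were seeded in 1536-well plates and dosed by pin tool the next day, with either a single drug or a fixed anchor-drug dose combined with five library-drug doses (not always all listed) spaced in √10 steps. Five days later, one step fixed the cells and stained their nuclei (final 0.05% Triton X-100, 1% formaldehyde, 1 ug/ml Hoechst), and nuclei were counted on 4× images. Relative viability is the nuclei count in treated wells divided by the count in vehicle wells, and each value is the median of duplicate plates.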
# Lapatinib + Crizotinib = compound: CS(=O)(=O)CCNCc1ccc(-c2ccc3ncnc(Nc4ccc(OCc5cccc(F)c5)c(Cl)c4)c3c2)o1 [Lapatinib] + C[C@@H](Oc1cc(-c2cnn(C3CCNCC3)c2)cnc1N)c1c(Cl)ccc(F)c1Cl [Crizotinib] (partner 1 µM)
# Method in brief: as §1
# Wnt-C59 + Trametinib = compound: CC1=NC=CC(=C1)C2=CC=C(C=C2)CC(=O)NC3=CC=C(C=C3)C4=CN=CC=C4 [Wnt-C59] + CC(=O)Nc1cccc(-n2c(=O)n(C3CC3)c(=O)c3c(Nc4ccc(I)cc4F)n(C)c(=O)c(C)c32)c1 [Trametinib] (partner 0.02 µM)
# Method in brief: as §1
# Lapatinib + Pemetrexed = compound: CS(=O)(=O)CCNCc1ccc(-c2ccc3ncnc(Nc4ccc(OCc5cccc(F)c5)c(Cl)c4)c3c2)o1 [Lapatinib] + Nc1nc2[nH]cc(CCc3ccc(C(=O)N[C@@H](CCC(=O)O)C(=O)O)cc3)c2c(=O)[nH]1 [Pemetrexed] (partner 0.2 µM)
# Method in brief: as §1
cell line,measurement,setting,value
UMC-11,relative viability,Wnt-C59 + Olaparib; first compound 0.001 µM,0.793
same,relative viability,Wnt-C59 + Olaparib; first compound 0.01 µM,0.378
same,relative viability,Wnt-C59 + Olaparib; first compound 0.03162 µM,0.479
same,relative viability,Wnt-C59 + Olaparib; first compound 0.1 µM,0.415
same,relative viability,Lapatinib + Crizotinib; first compound 0.02 µM,0.541
same,relative viability,Lapatinib + Crizotinib; first compound 0.06325 µM,0.508
same,relative viability,Lapatinib + Crizotinib; first compound 0.2 µM,0.672
same,relative viability,Lapatinib + Crizotinib; first compound 0.6325 µM,0.578
same,relative viability,Lapatinib + Crizotinib; first compound 2 µM,0.659
same,relative viability,Wnt-C59 + Trametinib; first compound 0.001 µM,0.654
same,relative viability,Wnt-C59 + Trametinib; first compound 0.01 µM,0.812
same,relative viability,Wnt-C59 + Trametinib; first compound 0.03162 µM,0.698
same,relative viability,Wnt-C59 + Trametinib; first compound 0.1 µM,0.758
same,relative viability,Lapatinib + Pemetrexed; first compound 0.02 µM,0.803
same,relative viability,Lapatinib + Pemetrexed; first compound 0.06325 µM,0.7
same,relative viability,Lapatinib + Pemetrexed; first compound 0.2 µM,0.781
same,relative viability,Lapatinib + Pemetrexed; first compound 0.6325 µM,0.795
same,relative viability,Lapatinib + Pemetrexed; first compound 2 µM,0.753

# — the supplement of paper PMC10307832
